# ChEMBL document CHEMBL1201862, “PubChem BioAssay data set” (2004)
#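 Five compound concentrations were applied to cells in 96-well plates for 48 hours; endpoints were derived by simple linear interpolation of the resulting dose-response curve. At the GI50, growth is halved.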 The source made the active and inactive calls. No stated cut-off is given here; in the data, active = GI50 up to about 1.1 µM and inactive = higher.
# Experiments:
# Test in all cases: growth of human tumour cells (NCI), 48 h
# [1] = tested on: A549
# [2] = tested on: HT-29
# [3] = tested on: EKVX
# [4] = tested on: UACC-62
# [5] = tested on: SNB-19
# [6] = tested on: NCI-H226
# [7] = tested on: CCRF-CEM
# [8] = tested on: COLO 205
# [9] = tested on: LXFL 529
# [10] = tested on: KM12
# [11] = tested on: HCT-15
# [12] = tested on: SK-MEL-2
# [13] = tested on: M14
# [14] = tested on: SK-MEL-28
# [15] = tested on: A498
# [16] = tested on: K562
# [17] = tested on: SF-295
# [18] = tested on: DMS-114
# [19] = tested on: SNB-78
# [20] = tested on: SF-268
# [21] = tested on: SN12C
# [22] = tested on: SK-MEL-5
# [23] = tested on: DLD-1
# [24] = tested on: RXF 393
# [25] = tested on: SK-OV-3
# [26] = tested on: UO-31
# [27] = tested on: HCT-116
# [28] = tested on: RPMI-8226
# [29] = tested on: M19-MEL
# [30] = tested on: SR
# [31] = tested on: LOX IMVI
# [32] = tested on: U-251
# [33] = tested on: HCC 2998
# [34] = tested on: OVCAR-3
# [35] = tested on: OVCAR-4
# [36] = tested on: HL-60
# [37] = tested on: NCI-H522
# [38] = tested on: NCI-H460
# [39] = tested on: SW-620
# [40] = tested on: HOP-18
# [41] = tested on: HOP-92
# [42] = tested on: CAKI-1
# [43] = tested on: MOLT-4
# [44] = tested on: HOP-62
# [45] = tested on: TK-10
# [46] = tested on: 786-0
# [47] = tested on: KM-20L2
# [48] = tested on: OVCAR-8
# [49] = tested on: UACC-257
# [50] = tested on: ACHN
# [51] = tested on: DMS-273
# [52] = tested on: XF498
# [53] = tested on: SF-539
# [54] = tested on: OVCAR-5
# [55] = tested on: NCI-H23
# [56] = tested on: IGROV-1
compound,measurement,setting,value
CN1CCC(CN2c3ccccc3Sc3ccccc32)CC1,GI50,[1],15.1 µM (inactive)
same,GI50,[2],12.7 µM (inactive)
same,GI50,[3],14.4 µM (inactive)
same,GI50,[4],14.8 µM (inactive)
same,GI50,[5],15.7 µM (inactive)
same,GI50,[6],15.4 µM (inactive)
same,GI50,[7],16.3 µM (inactive)
same,GI50,[8],14.1 µM (inactive)
same,GI50,[9],14.4 µM (inactive)
same,GI50,[10],16 µM (inactive)
same,GI50,[11],18.5 µM
same,GI50,[12],17.1 µM (inactive)
same,GI50,[13],13 µM (inactive)
same,GI50,[14],11 µM (inactive)
same,GI50,[15],15.6 µM (inactive)
same,GI50,[16],13.5 µM (inactive)
same,GI50,[17],15.8 µM (inactive)
same,GI50,[18],15.9 µM (inactive)
same,GI50,[19],15.8 µM (inactive)
same,GI50,[20],15.4 µM (inactive)
same,GI50,[21],19.1 µM (inactive)
same,GI50,[22],7.19 µM (inactive)
same,GI50,[23],14.7 µM (inactive)
same,GI50,[24],3.07 µM (inactive)
same,GI50,[25],16.5 µM (inactive)
same,GI50,[26],10.1 µM (inactive)
same,GI50,[27],12.6 µM (inactive)
same,GI50,[28],12.7 µM (inactive)
same,GI50,[29],13.4 µM (inactive)
same,GI50,[30],14.1 µM (inactive)
same,GI50,[31],13.5 µM (inactive)
same,GI50,[32],15.7 µM (inactive)
same,GI50,[33],12.9 µM (inactive)
same,GI50,[34],15.3 µM (inactive)
same,GI50,[35],16.3 µM (inactive)
same,GI50,[36],13 µM (inactive)
same,GI50,[37],14.9 µM (inactive)
same,GI50,[38],14.7 µM (inactive)
same,GI50,[39],15.3 µM (inactive)
same,GI50,[40],14.3 µM (inactive)
same,GI50,[41],5.69 µM (inactive)
same,GI50,[42],4.93 µM (inactive)
same,GI50,[43],15.5 µM (inactive)
same,GI50,[44],18 µM (inactive)
same,GI50,[45],15.7 µM (inactive)
same,GI50,[46],14.3 µM (inactive)
same,GI50,[47],12.9 µM (inactive)
same,GI50,[48],17.5 µM (inactive)
same,GI50,[49],14.6 µM (inactive)
same,GI50,[50],16 µM (inactive)
same,GI50,[51],13.4 µM (inactive)
same,GI50,[52],11.5 µM (inactive)
same,GI50,[53],14.9 µM (inactive)
same,GI50,[54],19.4 µM (inactive)
same,GI50,[55],16.4 µM (inactive)
same,GI50,[56],16.7 µM (inactive)
